The record followed here is patent publication EP0114908A1, “Finely pulverized 2,4-diamino-6-(2,5-dichlorophenyl)-1,3,5-triazine and pharmaceutically acceptable acid addition salts thereof” (NIPPON SHINYAKU COMPANY, LIMITED, priority 1983, dated 1984).

Holding throughout (type): in vivo
The subject of one data set is male rats. The experiment in a line: toxicity on intraperitoneal injection (LD50). The following applies: for LD50: injected intraperitoneally, male rats, limits given in brackets. The source says:
This decrease in toxicity is totally unexpected and represents a significant and important advance in the art.

The test system of data set [1] is ulcer formation induced by stress. The experiment in a line: stress ulcer in rats, immobilization-water immersion method. The following applies: for activity on ulcer formation induced by stress: orally; for Inhibition Rate / ED50: stress ulcer; for ED50: per os. The source says:
Since 50 microns is a common particle diameter in pharmaceutical preparations, it was most surprising that such significant and important advantages accrued according to the present invention. Inhibition activity against stress ulcer in rats of the compound and pharmaceutically acceptable acid additio salts in the finely pulverized form of the present invention are set forth in Table 2.

Data set [2] in a line: body weight increase inhibition on chronic oral administration. To be noted: rats; compared with a maleate salt having an average particle diameter of about 50 microns. How it is done:
A further advantage results from body weight increase inhibition which is one of the main side effects of the compound and salts of the present invention. When 10 mg/kg or more per day of either the compound or maleate salt is chronically administered to rats orally, body weight increase is inhibited. This is a side effect of triazines of this type. […] However, when the compound or a pharmaceutically acceptable acid addition salt thereof according to the present invention having an average particle diameter of about 8 microns was administered, the appearance of the side effect was only transient and moderate and the recovery of body weight was far faster as compared to that occurring when the compound was administered having an average particle diameter of about 50 microns.
The average particle sizes were 8 microns for the compound according to the present invention as compared to the same compound having an average particle diameter of 50 microns.

Where “and” joins values, the source holds several entries; their conditions need not be identical. Equal values may be shown once. Read-outs that look alike come from different tables or passages of the source.

Consider `Nc1nc(N)nc(-c2cc(Cl)ccc2Cl)n1` [2,4-diamino-6-(2,5-dichlorophenyl)-1,3,5-triazine], for which the values for the LD50 in the data set with male rats and in the data set with male rats (listed as the same compound having an average particle diameter of about 50 microns) were 495 mg/kg and 1740 mg/kg, respectively. Moreover, the “activity on ulcer formation induced by stress” value in data set [1] (dosage of 5 mg/kg) is reported as “ineffective”. Besides, the “Inhibition Rate” value in data set [1] (0.37 mg/kg per os, three values, 0.37 mg/kg) is 37% and 46% and 29%; in data set [1] (3.72 mg/kg per os, three values, 3.72 mg/kg), 62% and 47% and 33%.
With `Nc1nc(N)nc(-c2cc(Cl)ccc2Cl)n1` [Substance (I), 2,4-diamino-6-(2,5-dichlorophenyl)-1,3,5-triazine], the rats killed entry in the data set on male rats (intraperitoneal injection, dosages up to 3000 mg/kg) was “no rats were killed”. For the same molecule, in data set [1] (Rattus norvegicus, po, determined from the data of Table 2, read-out: ED50), the ED50 stood at 1.22 mg/kg. In data set [1] (dosage of 1 mg/kg), the “activity on ulcer formation induced by stress” value is “effective”. For the same molecule, the “Inhibition Rate” value in data set [1] (0.3 mg/kg) was 33%; in data set [1] (1.0 mg/kg) it was 45%; in data set [1] (3.0 mg/kg), 63%; in data set [1] (10 mg/kg) it was 70%; in data set [1] (30 mg/kg) it was 85%.
Take `Nc1nc(N)nc(-c2cc(Cl)ccc2Cl)n1` [Substance (II), 2,4-diamino-6-(2,5-dichlorophenyl)-1,3,5-triazine]: the “improvement in body weight side effect” value in data set [2] was “particularly dramatic”. Also, the LD50 in the data set with male rats (listed as the maleate salt according to the present invention) is 835 mg/kg. The “Inhibition Rate” value is given as 35% in data set [1] (0.3 mg/kg), 51% in data set [1] (1.0 mg/kg), 70% in data set [1] (3.0 mg/kg) and 85% in data set [1] (10 mg/kg). This molecule returned a median effective dose (ED50) in data set [1] (determined from the data of Table 2) of 0.90 mg/kg.
